Assay: Solubility of precipitated copper glycerolate
Settings: suspended in water, pH reduced with sulphuric acid

With “copper (II) glycerolate [copper glycerolate]” the “pH at which the suspended precipitate re-dissolved” value was “around 4”.
